What was measured:
JAK2 (h) = JAK2 (h) (Homo sapiens (Human), UniProt O60674); assay: JAK2 kinase assay (33P-ATP filter binding, Millipore); assay type: biochemical
Description: (§1) Kinase assays can be performed by measurement of incorporation of γ-^33P ATP into immobilized myelin basic protein (MBP). High binding white 384 well plates (Greiner) are coated with MBP (Sigma #M−1891) by incubation of 60 μL/well of 20 μg/mL MBP in Tris-buffered saline (TBS; 50 mM Tris pH 8.0, 138 mM NaCl, 2.7 mM KCl) for 24 h at 4° C. Plates are washed 3× with 100 μL TBS. Kinase reactions are carried out in a total volume of 34 μL in kinase buffer (5 mM Hepes pH 7.6, 15 mM NaCl, 0.01% bovine gamma globulin (Sigma #I-5506), 10 mM MgCl2, 1 mM DTT, 0.02% TritonX-100). Compound dilutions are performed in DMSO and added to assay wells to a final DMSO concentration of 1%. Each data point is measured in duplicate, and at least two duplicate assays are performed for each individual compound determination. Enzyme is added to final concentrations of 10 nM or 20 nM, for example. A mixture of unlabeled ATP and γ-^33P ATP is added to start the reaction (2×10^6 cpm of γ-^33P ATP per well (3000 Ci/mmole) and 10 μM unlabeled ATP, typically. The reactions are carried out for 1 h at room temperature with shaking. Plates are washed 7× with TBS, followed by the addition of 50 μL/well scintillation fluid (Wallac). Plates are read using a Wallac Trilux counter. This is only one format of such assays; various other formats are possible, as known to one skilled in the art.
(§2) The above assay procedure can be used to determine the IC50 for inhibition and/or the inhibition constant, Ki. The IC50 is defined as the concentration of compound required to reduce the enzyme activity by 50% under the condition of the assay. The IC50 value is estimated by preparing a 10 point curve using a 1/2 log dilution series (for example, a typical curve may be prepared using the following compound concentrations: 3 μM, 1 μM, 0.3 μM, 0.1 μM, 0.03 μM, 0.01 μM, 0.003 μM, 0.001 μM, 0.0003 μM and 0 μM).
(§3) The kinase assays described herein were performed at Millipore UK Ltd, Dundee Technology Park, Dundee DD2 1SW, UK.

JAK1 (h) = JAK1 (h) (Homo sapiens (Human), UniProt P23458); assay: JAK1 kinase assay (33P-ATP filter binding, Millipore); assay type: biochemical
Description: as §1, §2, §3

[1] = Compound stability in human liver microsomes; assay type: in vitro ADME; details: for half-life at 5 μM: compound 5 μM, NADPH 1.0 mM, 37° C.; for CLint scaled at 5 μM: in vivo CLint extrapolated
Description: (§4) Human or rat liver microsomes incubations were conducted in duplicate in polypropylene tubes. The typical incubation mixtures consisted of human or rat liver microsomes (0.5 mg protein/mL), compounds of interest (5 μM) and NADPH (1.0 mM) in a total volume of 200 μL potassium phosphate buffer (PBS, 100 mM, pH 7.4). Compounds were dissolved in DMSO and diluted with PBS such that the final concentration of DMSO was 0.05%. The enzymatic reactions were commenced with the addition of protein after a 3-min preincubation and incubated in a water bath open to the air at 37° C. Reactions were terminated at various time points (0, 5, 10, 15, 30, 60 min) by adding equal volume of ice-cold acetonitrile. The samples were stored at −80° C. until LC/MS/MS assays.
(§5) The concentrations of compounds in the incubation mixtures of human or rat liver microsomes were determined by a LC/MS/MS method. The ranges of the linearity in the concentration range were determined for each tested compounds.
(§6) A parallel incubation was performed using denatured microsomes as the negative control, and reactions were terminated at various time points (0, 15, 60 min) after incubation at 37° C.
(§7) Dextromethorphan (70 μM) was selected as the positive control, and reactions were terminated at various time points (0, 5, 10, 15, 30, 60 min) after incubation at 37° C. Both positive and negative control samples were included in each assay to ensure the integrity of the microsomal incubation system.
(§8) The concentrations of compounds in human or rat liver microsome incubations were plotted as a percentage of the relevant zero time point control for each reaction. The in vivo CLint were extrapolated (ref.: Naritomi, Y.; Terashita, S.; Kimura, S.; Suzuki, A.; Kagayama, A.; and Sugiyama, Y.; Prediction of human hepatic clearance from in vivo animal experiments and in vitro metabolic studies with liver microsomes from animals and humans. Drug Metab. Dispos., 2001, 29: 1316-1324).

[2] = Compound stability in rat liver microsomes; assay type: in vitro ADME; details: for half-life at 5 μM: compound 5 μM, NADPH 1.0 mM, 37° C.; for CLint scaled at 5 μM: in vivo CLint extrapolated
Description: as §4, §5, §6, §7, §8

[3] = Pharmacokinetics after intravenous and oral administration in rats; assay type: in vivo; details: for Clearance (CL) after iv dosing / AUC(0-t) / half-life / Vd: dose 1 mg/kg (Ex. 27: 0.72 mg/kg), iv dosing; for F: oral bioavailability; for AUC(0-t) / half-life / Vd: rat, plasma; for Vd: read-out: Vss
Description: The LC/MS/MS system used in the analysis consists of an Agilent 1200 Series vacuum degasser, binary pump, well-plate autosampler, thermostatted column compartment, the Agilent G6430 Triple Quadrupole Mass Spectrometer with an electrosprayionization (ESI) source. Quantitative analysis was carried out using MRM mode. The parameters for MRM transitions are in the Table A.
An Agilent XDB-C18, 2.1×30 mm, 3.5 μM column was used for the analysis. 5 μL of the samples were injected. Analysis condition: The mobile phase was 0.1% formic acid in water (A) and 0.1% formic acid in methanol (B). The flow rate was 0.4 mL/min. And the gradient of Mobile phase was in the Table B.
Alternatively, an Agilent 6330 series LC/MS/MS spectrometer equipped with G1312A binary pumps, a G1367A autosampler and a G1314C UV detector were used in the analysis. An ESI source was used on the LC/MS/MS spectrometer. The analysis was done in positive ion mode as appropriate and the MRM transition for each analyte was optimized using standard solution. A Capcell MP-C18 100×4.6 mm I.D., […] column (Phenomenex, Torrance, Calif., USA) was used during the analysis. The mobile phase was 5 mM ammonia acetate, 0.1% MeOH in water (A): 5 mM ammonia acetate, 0.1% MeOH in acetonitrile (B) (70:30, v/v). The flow rate was 0.6 mL/min. Column was maintained at ambient temperature. 20 μL of the samples were injected.
The compounds disclosed herein are assessed in pharmacokinetic studies in mice, rats, dogs or monkeys. The compounds are administered as a water solution, 2% HPMC+1% TWEEN®80 in water solution, 5% DMSO+5% solution in saline, 4% MC suspension or capsule. For the intravenous administration, the animals are generally given at 1 or 2 mg/kg dose. For the oral (p.o.) dosing, mice and rats are generally given 5 or 10 mg/kg dose, and dogs and monkeys are generally given 10 mg/kg dose. The blood samples (0.3 mL) are drawn at 0.25, 0.5, 1.0, 2.0, 3.0, 4.0, 6.0, 8.0, 12 and 24 h time points or 0.083, 0.25, 0.5, 1.0, 2.0, 4.0, 6.0, 8.0 and 24 h time points and centrifuged at 3,000 or 4000 rpm for 2 to 10 min. The plasma solutions are collected, and stored at −20° C. or −70° C. until analyzed by LC/MS/MS as described above.

[4] = pH 7.4, Human liver microsomes 0.5 mg protein/mL
[5] = pH 7.4, Rat liver microsomes 0.5 mg protein/mL

JAK1 (h), sequence (P23458 whole entry): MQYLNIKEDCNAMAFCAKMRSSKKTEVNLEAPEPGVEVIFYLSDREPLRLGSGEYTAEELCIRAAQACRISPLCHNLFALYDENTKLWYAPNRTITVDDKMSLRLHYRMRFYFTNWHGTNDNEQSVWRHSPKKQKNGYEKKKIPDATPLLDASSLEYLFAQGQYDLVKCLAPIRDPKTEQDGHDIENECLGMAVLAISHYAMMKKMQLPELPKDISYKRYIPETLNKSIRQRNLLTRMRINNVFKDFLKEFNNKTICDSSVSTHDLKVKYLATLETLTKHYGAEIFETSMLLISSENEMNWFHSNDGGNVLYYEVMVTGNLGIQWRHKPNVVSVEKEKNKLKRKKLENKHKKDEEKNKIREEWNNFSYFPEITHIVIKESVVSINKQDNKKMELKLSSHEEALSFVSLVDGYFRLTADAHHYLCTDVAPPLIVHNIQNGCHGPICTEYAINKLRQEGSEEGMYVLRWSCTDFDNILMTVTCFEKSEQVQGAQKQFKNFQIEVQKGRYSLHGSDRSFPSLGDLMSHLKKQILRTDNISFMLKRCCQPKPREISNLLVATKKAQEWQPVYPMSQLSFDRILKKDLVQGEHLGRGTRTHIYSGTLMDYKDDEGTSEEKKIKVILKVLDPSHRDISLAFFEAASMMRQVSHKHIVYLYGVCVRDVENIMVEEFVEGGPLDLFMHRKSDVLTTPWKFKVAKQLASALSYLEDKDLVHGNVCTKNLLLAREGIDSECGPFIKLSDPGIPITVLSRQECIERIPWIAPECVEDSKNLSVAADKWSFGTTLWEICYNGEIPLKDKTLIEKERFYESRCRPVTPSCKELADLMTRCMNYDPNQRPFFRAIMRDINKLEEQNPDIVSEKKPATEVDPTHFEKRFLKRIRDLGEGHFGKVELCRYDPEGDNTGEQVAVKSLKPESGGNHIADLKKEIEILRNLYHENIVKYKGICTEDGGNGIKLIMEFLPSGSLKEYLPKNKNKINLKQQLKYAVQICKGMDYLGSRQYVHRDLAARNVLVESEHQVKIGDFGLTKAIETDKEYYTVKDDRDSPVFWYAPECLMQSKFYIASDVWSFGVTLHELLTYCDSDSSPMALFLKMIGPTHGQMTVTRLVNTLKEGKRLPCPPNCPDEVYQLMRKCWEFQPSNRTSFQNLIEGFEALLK
JAK2 (h), sequence (O60674 whole entry): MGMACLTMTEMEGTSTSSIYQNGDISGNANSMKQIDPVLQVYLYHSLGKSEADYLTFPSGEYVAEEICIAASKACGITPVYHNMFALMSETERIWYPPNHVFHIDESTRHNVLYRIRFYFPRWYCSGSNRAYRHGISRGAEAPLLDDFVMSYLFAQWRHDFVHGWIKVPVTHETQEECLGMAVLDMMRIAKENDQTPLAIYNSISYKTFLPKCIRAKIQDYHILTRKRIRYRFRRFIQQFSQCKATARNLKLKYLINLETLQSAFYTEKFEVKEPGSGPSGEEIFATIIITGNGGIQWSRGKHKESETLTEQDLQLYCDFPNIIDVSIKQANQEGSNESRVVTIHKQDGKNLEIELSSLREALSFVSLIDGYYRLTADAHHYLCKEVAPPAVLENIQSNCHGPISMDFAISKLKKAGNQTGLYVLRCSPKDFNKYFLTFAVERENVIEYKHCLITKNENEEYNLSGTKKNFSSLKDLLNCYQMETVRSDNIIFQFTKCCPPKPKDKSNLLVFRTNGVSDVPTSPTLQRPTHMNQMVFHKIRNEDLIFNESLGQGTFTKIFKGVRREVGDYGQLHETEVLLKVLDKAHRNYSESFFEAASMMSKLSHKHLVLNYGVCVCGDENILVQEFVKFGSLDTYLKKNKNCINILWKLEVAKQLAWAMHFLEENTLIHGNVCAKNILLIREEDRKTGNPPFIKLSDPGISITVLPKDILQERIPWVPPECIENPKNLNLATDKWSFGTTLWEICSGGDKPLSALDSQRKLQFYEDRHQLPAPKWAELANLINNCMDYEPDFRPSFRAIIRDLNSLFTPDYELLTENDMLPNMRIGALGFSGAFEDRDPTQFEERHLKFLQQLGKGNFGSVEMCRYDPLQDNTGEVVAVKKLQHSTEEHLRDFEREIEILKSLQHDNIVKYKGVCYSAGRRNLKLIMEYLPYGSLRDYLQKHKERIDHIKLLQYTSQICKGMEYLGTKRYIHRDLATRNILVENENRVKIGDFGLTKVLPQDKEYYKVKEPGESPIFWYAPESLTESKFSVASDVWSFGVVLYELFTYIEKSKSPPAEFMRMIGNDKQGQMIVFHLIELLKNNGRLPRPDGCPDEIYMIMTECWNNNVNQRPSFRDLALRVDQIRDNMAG

Row | SMILES | IC50 (JAK2 (h)) [nM] | IC50 (JAK1 (h)) [nM] | half-life at 5 μM [1, 4] [min] | CLint scaled at 5 μM ([1]; pH 7.4, Human liver microsomes) [mL/min/kg] | half-life at 5 μM [2, 5] [min] | CLint scaled at 5 μM ([2]; pH 7.4, Rat liver microsomes) [mL/min/kg] | Clearance (CL) after iv dosing [3] [mL/min/kg] | F [3] [%] | AUC(0-t) [3] [ng·h/mL] | half-life [3] [min] | Vd [3] [L/kg] | also measured
1 | CN(c1nc(Nc2cnn(C)c2)ncc1Cl)C1CCC2(CCCN(C(=O)CC#N)C2)C1 (stereo not shown) | 7 | 3 |  |  |  |  |  |  |  |  |  | 
2 | Cn1cc(Nc2ncc(Cl)c(NC3CC4CN(CC(F)(F)F)CC4C3)n2)cn1 (stereo not shown) [Ex. 35, 5-chloro-N^2-(1-methyl-1H-pyrazol-4-yl)-N^4-(2-(2,2,2-trifluoroethyl)octahydrocyclopenta[c]pyrrol-5-yl)pyrimidine-2,4-diamine] | 8 | 2 | 6.65 | 261 | 2.72 | 913 |  |  |  |  |  | 
3 | Cn1cnc(Nc2ncc(Cl)c(NC3CCC4(CC3)CCN(C(=O)CC#N)CC4)n2)c1 [Ex. 42, 3-(9-((5-chloro-2-((1-methyl-1H-imidazol-4-yl)amino)pyrimidin-4-yl)amino)-3-azaspiro[5.5]undecan-3-yl)-3-oxopropanenitrile] | 12 | 3 |  |  |  |  |  |  |  |  |  | half-life at 5 μM ([1]; human, liver microsomes, pH 7.4, Human liver microsomes 0.5 mg protein/mL): 48.9 min; CLint scaled at 5 μM ([1]; human, liver microsomes, pH 7.4, Human liver microsomes): 35.6 mL/min/kg; half-life at 5 μM ([2]; rat, liver microsomes, pH 7.4, Rat liver microsomes 0.5 mg protein/mL): 31.5 min; CLint scaled at 5 μM ([2]; rat, liver microsomes, pH 7.4, Rat liver microsomes): 78.8 mL/min/kg
4 | CN(c1nc(Nc2cnn(C)c2)ncc1Cl)C1CCC2(CC1)CCN(C(=O)CC#N)CC2 [Ex. 24, 3-(9-((5-chloro-2-((1-methyl-1H-pyrazol-4-yl)amino)pyrimidin-4-yl)(methyl)amino)-3-azaspiro[5.5]undecan-3-yl)-3-oxopropanenitrile] | 39 | 19 |  |  |  |  |  |  |  |  |  | 
5 | Cn1cc(Nc2ncc(Cl)c(NC3CC4CN(c5ccc(C#N)cn5)CC4C3)n2)cn1 (stereo not shown) [Ex. 33, 6-(5-((5-chloro-2-((1-methyl-1H-pyrazol-4-yl)amino)pyrimidin-4-yl)amino)hexahydrocyclopenta[c]pyrrol-2(1H)-yl)nicotinonitrile] | 3 | 0.4 |  |  |  |  | 24.8 | 60.4 | 702 | 147 | 3.33 | 
6 | Cn1cc(Nc2ncc(Cl)c(NC3CCC4(CCNC4)CC3)n2)cn1 (single isomer, unassigned) [Ex. 13.3B, 5-chloro-N^2-(1-methyl-1H-pyrazol-4-yl)-N^4-(2-azaspiro[4.5]decan-8-yl)pyrimidine-2,4-diamine] | 14 | 2 |  |  |  |  |  |  |  |  |  | 
7 | Cn1cc(Nc2ncc(Cl)c(NC3CCC4(CCNC4)CC3)n2)cn1 (single isomer, unassigned) [Ex. 13.3A, 5-chloro-N^2-(1-methyl-1H-pyrazol-4-yl)-N^4-(2-azaspiro[4.5]decan-8-yl)pyrimidine-2,4-diamine] | 55 | 2 |  |  |  |  |  |  |  |  |  | 
8 | Cn1cc(Nc2ncc(Cl)c(NC3CCC4(CC3)CCN(C(=O)CC#N)CC4)n2)cn1 [Ex. 26, 3-(9-((5-chloro-2-((1-methyl-1H-pyrazol-4-yl)amino)pyrimidin-4-yl)amino)-3-azaspiro[5.5]undecan-3-yl)-3-oxopropanenitrile] | 6 | 2 |  |  |  |  |  |  |  |  |  | 

Second part, led by results:

Row | IC50 (JAK2 (h)) [nM] | IC50 (JAK1 (h)) [nM] | half-life at 5 μM [1, 4] [min] | CLint scaled at 5 μM ([1]; pH 7.4, Human liver microsomes) [mL/min/kg] | half-life at 5 μM [2, 5] [min] | CLint scaled at 5 μM ([2]; pH 7.4, Rat liver microsomes) [mL/min/kg] | Clearance (CL) after iv dosing [3] [mL/min/kg] | F [3] [%] | AUC(0-t) [3] [ng·h/mL] | half-life [3] [min] | Vd [3] [L/kg] | SMILES | also measured
9 | 371 | 20 |  |  |  |  |  |  |  |  |  | Cn1cnc(Nc2ncc(Cl)c(NC3CC4CN(C(=O)CC#N)CC4C3)n2)c1 (stereo not shown) [Ex. 41] | 
10 |  | 5 | 37.6 | 46.2 | 41.4 | 60 | 36.3 | 31.3 | 459 | 32.4 | 0.95 | Cn1nc(C2CC2)cc1Nc1ncc(Cl)c(NC2CC3CN(C(=O)CC#N)CC3C2)n1 (stereo not shown) [Ex. 56, 3-(5-((5-chloro-2-((3-cyclopropyl-1-methyl-1H-pyrazol-5-yl)amino)pyrimidin-4-yl)amino)hexahydrocyclopenta[c]pyrrol-2(1H)-yl)-3-oxopropanenitrile] | 
11 |  | 4 | 271 | 6.41 | 81.1 | 30.6 | 82.8 | 29.6 | 184 | 48.6 | 5.43 | Cc1cnc(Nc2cnn(C)c2)nc1NC1CC2CN(S(C)(=O)=O)CC2C1 (stereo not shown) [Ex. 62, 5-methyl-N^2-(1-methyl-1H-pyrazol-4-yl)-N^4-(2-(methylsulfonyl)octahydrocyclopenta[c]pyrrol-5-yl)pyrimidine-2,4-diamine] | 
12 |  | 2 | 62.8 | 27.7 | 33.6 | 74 | 53.2 | 48.1 | 315 | 24.6 | 1.31 | Cc1nn(C)cc1Nc1ncc(Cl)c(NC2CC3CN(C(=O)CC#N)CC3C2)n1 (stereo not shown) [Ex. 64, 3-(5-((5-chloro-2-((1,3-dimethyl-1H-pyrazol-4-yl)amino)pyrimidin-4-yl)amino)hexahydrocyclopenta[c]pyrrol-2(1H)-yl)-3-oxopropanenitrile] | 
